# Data reported in ChEMBL document CHEMBL4806967, “Heterocyclic kinase inhibitors and uses thereof” (2020).
# Active and inactive are the calls of the source. The rule behind the calls is not given here.
# Tests used:
# [1] = Toxicity in C57BI/6N mouse implanted subcutaneously with MC38 cells assessed as body weight loss at 30 to 100 mg/kg, po once daily for 3 weeks; assay type: organism-based, MC-38; conditions: in vivo, dose 30-100 mg/kg
# [2] = Toxicity in C57BL/6 mouse assessed as signs of intolerance by measuring change in posture upto 100 mg/kg, gavage twice daily measured after 7 days; assay type: organism-based; conditions: in vivo, po, 168 h, time 7 day
# [3] = Toxicity in C57BL/6 mouse assessed as signs of intolerance by measuring tail pinch upto 100 mg/kg, gavage twice daily measured after 7 days; assay type: organism-based; conditions: in vivo, po, 168 h, time 7 day
# [4] = Toxicity in C57BL/6 mouse assessed as signs of intolerance by measuring change in lacrimation upto 100 mg/kg, gavage twice daily measured after 7 days; assay type: organism-based; conditions: in vivo, po, 168 h, time 7 day
# [5] = Toxicity in C57BL/6 mouse assessed as signs of intolerance by measuring change in salivation upto 100 mg/kg, gavage twice daily measured after 7 days; assay type: organism-based; conditions: in vivo, po, 168 h, time 7 day
# [6] = AUCextrap in CD-1 mouse at 30 mg/kg, po; assay type: ADME, organism-based; conditions: in vivo
# [7] = Toxicity in C57BL/6 mouse assessed as signs of intolerance by measuring change in piloerection upto 100 mg/kg, gavage twice daily measured after 7 days; assay type: organism-based; conditions: in vivo, po, 168 h, time 7 day
# [8] = Toxicity in C57BL/6 mouse assessed as signs of intolerance by measuring chromo-dacryorrhea upto 100 mg/kg, gavage twice daily measured after 7 days; assay type: organism-based; conditions: in vivo, po, 168 h, time 7 day
# [9] = Free drug concentration in mouse at 30 mg/kg, po measured after 24 hrs; assay type: ADME, organism-based; conditions: in vivo
# [10] = Toxicity in C57BL/6 mouse assessed as signs of intolerance by measuring ease of handling upto 100 mg/kg, gavage twice daily measured after 7 days; assay type: organism-based; conditions: in vivo, po, 168 h, time 7 day
# [11] = Toxicity in C57BL/6 mouse assessed as signs of intolerance by measuring change in intact fur/coat upto 100 mg/kg, gavage twice daily measured after 7 days; assay type: organism-based; conditions: in vivo, po, 168 h, time 7 day
# [12] = Toxicity in C57BL/6 mouse assessed as signs of intolerance by measuring change in arousal upto 100 mg/kg, gavage twice daily measured after 7 days; assay type: organism-based; conditions: in vivo, po, 168 h, time 7 day
# [13] = Toxicity in C57BL/6 mouse assessed as maximum tolerated dose administered through gavage twice daily measured after 7 days; conditions: in vivo, po, time 7 day
# [14] = Toxicity in C57BL/6 mouse assessed as signs of intolerance by measuring change in vocalization upto 100 mg/kg, gavage twice daily measured after 7 days; assay type: organism-based; conditions: in vivo, po, 168 h, time 7 day
# [15] = Free drug concentration in mouse at 30 mg/kg, po measured after 7 hrs; assay type: ADME, organism-based; conditions: in vivo
# [16] = Toxicity in C57BL/6 mouse assessed as signs of intolerance by measuring change in normal motor movements upto 100 mg/kg, gavage twice daily measured after 7 days; assay type: organism-based; conditions: in vivo, po, 168 h, time 7 day
# [17] = Toxicity in C57BL/6 mouse assessed as signs of intolerance by measuring diarrhoea upto 100 mg/kg, gavage twice daily measured after 7 days; assay type: organism-based; conditions: in vivo, po, 168 h, time 7 day
# MC-38 = assay: Anticancer activity against mouse MC38 cells subcutaneously implanted in C57BI/6N mouse assessed as tumour growth inhibition at 100 mg/kg, po once daily for 3 weeks; assay type: functional; conditions: read-out: TGI
# [18] = Free drug concentration in mouse at 30 mg/kg, po measured after 2 hrs; assay type: ADME, organism-based; conditions: in vivo
# [19] = AUCextrap in CD-1 mouse at 1 mg/kg, iv; assay type: ADME, organism-based; conditions: in vivo
# [20] = Free drug concentration in mouse at 30 mg/kg, po measured after 6 hrs; assay type: ADME, organism-based; conditions: in vivo
# hERG (KCNH2) = hERG (KCNH2) (Homo sapiens, UniProt Q12809); assay: Inhibition of human ERG expressed in HEK cells at 10 uM by automated electrophysiology assay; assay type: cell-based; conditions: HEK cells that express human ERG
# K562 = assay: Anticancer activity against human K562 cells xenografted in SCID mouse assessed as increase in survival at 10 to 30 mg/kg, iv once daily for 5 days; assay type: functional, organism-based; conditions: dose 10-30 mg/kg, time 5.0 day
# [21] = Metabolic stability in mouse liver microsomes assessed as intrinsic clearance; assay type: ADME, Microsome
# hERG (KCNH2), sequence (Q12809 whole entry): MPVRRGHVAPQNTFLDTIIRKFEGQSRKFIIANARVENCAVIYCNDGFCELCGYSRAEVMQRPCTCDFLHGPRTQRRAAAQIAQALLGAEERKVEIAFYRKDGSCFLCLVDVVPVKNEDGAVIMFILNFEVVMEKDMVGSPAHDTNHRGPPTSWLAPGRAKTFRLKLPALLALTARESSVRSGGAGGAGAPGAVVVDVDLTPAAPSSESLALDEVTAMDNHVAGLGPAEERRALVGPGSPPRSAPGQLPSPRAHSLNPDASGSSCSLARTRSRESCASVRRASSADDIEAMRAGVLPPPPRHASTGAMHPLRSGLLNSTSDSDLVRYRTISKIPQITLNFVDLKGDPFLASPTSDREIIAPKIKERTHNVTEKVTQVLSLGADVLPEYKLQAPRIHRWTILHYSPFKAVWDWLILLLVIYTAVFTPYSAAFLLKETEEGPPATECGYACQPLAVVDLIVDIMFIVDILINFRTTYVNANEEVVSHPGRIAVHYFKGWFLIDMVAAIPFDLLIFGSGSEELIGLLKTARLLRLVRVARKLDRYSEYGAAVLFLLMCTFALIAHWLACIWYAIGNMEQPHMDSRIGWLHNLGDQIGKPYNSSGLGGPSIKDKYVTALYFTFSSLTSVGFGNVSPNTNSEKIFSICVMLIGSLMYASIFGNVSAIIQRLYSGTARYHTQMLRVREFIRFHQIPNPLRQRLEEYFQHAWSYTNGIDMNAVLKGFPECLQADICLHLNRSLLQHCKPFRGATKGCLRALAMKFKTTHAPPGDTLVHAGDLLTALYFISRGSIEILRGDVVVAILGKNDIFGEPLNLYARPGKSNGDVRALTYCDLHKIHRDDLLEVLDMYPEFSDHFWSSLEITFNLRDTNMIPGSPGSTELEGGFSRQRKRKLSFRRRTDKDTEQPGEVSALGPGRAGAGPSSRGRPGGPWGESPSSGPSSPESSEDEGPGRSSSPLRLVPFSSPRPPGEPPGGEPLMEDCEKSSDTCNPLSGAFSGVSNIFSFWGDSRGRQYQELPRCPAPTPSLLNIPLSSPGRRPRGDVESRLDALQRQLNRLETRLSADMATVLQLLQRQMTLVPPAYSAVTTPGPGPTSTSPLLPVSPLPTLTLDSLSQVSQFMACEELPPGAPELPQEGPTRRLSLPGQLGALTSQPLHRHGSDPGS
smiles,measurement,setting,value
Cc1nc(Nc2ncc(C(=O)Nc3c(C)csc3Cl)s2)cc(N2CCN(CCO)CC2)n1,Activity,[1],Non-Toxic
same,Activity,[2],Non-Toxic
same,Activity,[3],Non-Toxic
same,Activity,[4],Non-Toxic
same,Activity,[5],Non-Toxic
same,%AUCextra,[6],5.81%
same,Activity,[7],Non-Toxic
same,Activity,[8],Non-Toxic
same,Drug uptake(free),[9],0.1 nM
same,Activity,[10],Non-Toxic
same,Activity,[11],Non-Toxic
same,Activity,[12],Non-Toxic
same,MTD at 168 h,[13],≤ 100 mg/kg
same,Activity,[14],Non-Toxic
same,Drug uptake(free),[15],3 nM
same,Activity,[16],Non-Toxic
same,Activity,[17],Non-Toxic
same,inhibition in vivo at 100 mg/kg,MC-38,38%
same,Drug uptake(free),[18],32 nM
same,%AUCextra,[19],5.81%
Cc1nc(Nc2ncc(C(=O)Nc3c(C)csc3Cl)s2)cc(N2CCN(C)CC2)n1,Drug uptake(free),[20],8 nM
same,Drug uptake(free),[18],44 nM
Cc1nc(Nc2ncc(C(=O)Nc3c(Cl)csc3C)s2)cc(N2CCN(CCO)CC2)n1,Drug uptake(free),[20],4 nM
same,Drug uptake(free),[18],80 nM
Cc1nc(Nc2ncc(C(=O)Nc3c(C)cccc3Cl)s2)cc(N2CCN(CCO)CC2)n1.O [DASATINIB],Activity,[1],Non-Toxic
same,inhibition at 10 µM,hERG (KCNH2),36%
same,Activity,K562,Active
same,Drug uptake(free),[18],30 nM
Cc1nc(Nc2ncc(C(=O)Nc3c(Cl)csc3Cl)s2)cc(N2CCN(CCO)CC2)n1,Drug uptake(free),[20],5 nM
same,Drug uptake(free),[18],43 nM
Cc1nc(Nc2ncc(C(=O)Nc3ncccc3C)s2)cc(N2CCN(CCO)CC2)n1,CLint,[21],38 µL/min/mg
